Laboratory results: ChEMBL document CHEMBL1201862, “PubChem BioAssay data set” (2004)
Active and inactive are the calls of the source.

How the values were obtained:
Genome polyprotein = Genome polyprotein (dengue virus type 2, UniProt P29990); test: flavivirus cap methylation enzyme inhibition – biochemical, confirmation dose response, primary screen (AID 588689); type: functional
Vero = test: cells; type: functional; conditions: Chlorocebus sabaeus
INS1 = test: INS-1E survival protection against cytokine death – cell-based, luminescence, retest, dose response (AID 449756); type: functional; conditions: Rattus norvegicus;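 note: cell death triggered by IL-1 beta plus TNF-alpha plus IFN-gamma mixture; protective hits raise ATP signal compared with cytokine alone wells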
[1] = Luminescence Cell-Based Dose Retest to Confirm Inhibitors of Cancer Stem Cells. [Related pubchem assays (depositor defined):AID2717, AID2721]; type: functional; conditions: Homo sapiens
[2] = viability of PTEN-deleted HCT116 cells – cell-based, HCT116 PTEN knockout, dose response (AID 1047); type: functional;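 note: HCT116 colon tumor cells with PTEN knocked out; cells exposed to compound for 60 hours before readout; potency for loss of cell viability measured by luminescence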
[3] = viability of HCT116 lacking mutant beta-catenin – cell-based, human colon tumor, dose response (AID 1045); type: functional;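 note: HCT116 colon tumor cells with beta catenin knocked out; cells exposed to compound for 60 hours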
[4] = target: FAD-linked sulfhydryl oxidase ALR (Homo sapiens, UniProt P55789); test: ALR-catalysed DTT oxidation blockers – biochemical, H2O2 detection, luminescence, cherry-pick, dose response (AID 493248)
Sequence of FAD-linked sulfhydryl oxidase ALR (P55789 whole entry): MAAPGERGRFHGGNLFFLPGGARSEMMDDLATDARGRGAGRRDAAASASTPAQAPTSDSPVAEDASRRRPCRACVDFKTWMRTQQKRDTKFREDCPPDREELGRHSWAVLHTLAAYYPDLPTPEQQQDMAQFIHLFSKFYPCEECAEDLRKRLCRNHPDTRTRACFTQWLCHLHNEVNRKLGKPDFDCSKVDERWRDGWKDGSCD

[5] = viability loss in HeLa cells – cytotoxicity control for MgcRacGAP inhibitor project, dose response (AID 624300); type: functional
[6] = target: Glyceraldehyde-3-phosphate dehydrogenase (Homo sapiens, UniProt P04406)
Sequence of Glyceraldehyde-3-phosphate dehydrogenase (P04406 whole entry): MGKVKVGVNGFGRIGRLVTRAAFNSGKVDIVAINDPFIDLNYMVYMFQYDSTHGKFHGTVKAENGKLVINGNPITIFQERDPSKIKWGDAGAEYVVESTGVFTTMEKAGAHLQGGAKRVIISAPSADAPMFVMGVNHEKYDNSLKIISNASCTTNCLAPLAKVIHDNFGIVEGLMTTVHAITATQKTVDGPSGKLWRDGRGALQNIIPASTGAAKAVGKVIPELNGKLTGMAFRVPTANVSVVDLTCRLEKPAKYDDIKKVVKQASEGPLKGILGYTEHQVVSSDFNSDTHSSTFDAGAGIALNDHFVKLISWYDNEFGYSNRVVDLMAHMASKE

Estrogen receptor beta = Estrogen receptor beta (Homo sapiens, UniProt Q92731);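 note: recombinant ER-beta bound to coactivator SRC1 peptide in presence of estradiol agonist; inhibitors block coactivator peptide binding and lower the FRET signal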
Sequence of Estrogen receptor beta (Q92731 whole entry): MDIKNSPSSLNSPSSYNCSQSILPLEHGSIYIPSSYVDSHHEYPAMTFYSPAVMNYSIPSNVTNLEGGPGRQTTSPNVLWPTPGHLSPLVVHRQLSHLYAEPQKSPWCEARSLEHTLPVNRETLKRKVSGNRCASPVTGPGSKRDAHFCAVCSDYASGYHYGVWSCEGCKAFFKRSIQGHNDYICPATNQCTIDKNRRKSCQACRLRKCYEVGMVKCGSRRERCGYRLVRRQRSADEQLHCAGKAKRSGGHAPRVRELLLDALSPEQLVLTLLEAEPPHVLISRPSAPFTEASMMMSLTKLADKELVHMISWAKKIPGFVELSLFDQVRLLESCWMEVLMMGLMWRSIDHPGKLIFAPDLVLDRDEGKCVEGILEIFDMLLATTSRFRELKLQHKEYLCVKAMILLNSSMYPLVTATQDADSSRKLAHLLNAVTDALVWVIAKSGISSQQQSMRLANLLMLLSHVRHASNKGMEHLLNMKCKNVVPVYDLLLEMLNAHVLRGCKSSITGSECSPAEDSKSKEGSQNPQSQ

Sequence of Genome polyprotein (P29990 2492-3391 limits assumed): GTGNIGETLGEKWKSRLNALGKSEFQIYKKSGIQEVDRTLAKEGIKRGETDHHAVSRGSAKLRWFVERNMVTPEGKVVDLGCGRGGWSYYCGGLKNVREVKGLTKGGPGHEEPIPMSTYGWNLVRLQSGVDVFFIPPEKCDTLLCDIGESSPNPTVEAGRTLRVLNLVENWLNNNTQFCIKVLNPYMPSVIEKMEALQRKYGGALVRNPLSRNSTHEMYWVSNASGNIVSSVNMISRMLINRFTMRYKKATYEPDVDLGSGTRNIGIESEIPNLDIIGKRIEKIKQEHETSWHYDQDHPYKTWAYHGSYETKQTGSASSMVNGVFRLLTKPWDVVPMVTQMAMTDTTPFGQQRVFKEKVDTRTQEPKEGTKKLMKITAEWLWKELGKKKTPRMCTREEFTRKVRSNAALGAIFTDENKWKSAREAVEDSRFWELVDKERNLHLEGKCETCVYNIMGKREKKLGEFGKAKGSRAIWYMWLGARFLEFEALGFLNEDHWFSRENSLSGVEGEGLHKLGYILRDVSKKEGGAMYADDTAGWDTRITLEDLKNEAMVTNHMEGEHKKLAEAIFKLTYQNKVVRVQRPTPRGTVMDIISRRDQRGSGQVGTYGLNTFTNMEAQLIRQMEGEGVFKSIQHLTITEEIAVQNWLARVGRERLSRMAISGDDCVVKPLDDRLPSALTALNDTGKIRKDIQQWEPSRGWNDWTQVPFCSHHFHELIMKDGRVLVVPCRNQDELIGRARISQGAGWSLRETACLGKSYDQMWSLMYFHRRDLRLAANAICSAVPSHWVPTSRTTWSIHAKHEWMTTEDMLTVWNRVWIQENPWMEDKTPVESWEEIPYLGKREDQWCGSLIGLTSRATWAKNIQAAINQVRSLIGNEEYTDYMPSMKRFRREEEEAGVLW

With `CC(=O)n1cc(C=C2C(=O)NC(=O)NC2=O)c2ccccc21` the IC50 (Genome polyprotein) was 42.8 µM (active).
In the case of `O=C(Nc1ccccc1C(F)(F)F)N1CCN(c2ccc3nnc(-c4ccc(F)cc4)n3n2)CC1`, the CC50 (Vero) is reported as > 25 µM (active).
In the case of `C=CCn1c(SCC(=O)c2[nH]c(C)c(C(=O)OCC)c2C)nc2scc(-c3ccc(OC)c(OC)c3)c2c1=O`, the AC50 (INS1) is reported as 3.37 µM (active), the AC50 [1] is reported as 2.05 µM (active) and the EC50 [2] is reported as 6.55 µM (active). For the same compound, the EC50 [3] was 7.26 µM (active).
In the case of `COc1cc(OC)c(NC(=O)C(=O)CC(=O)c2ccc(C)cc2C)cc1Cl`, the CC50 (Vero) is reported as 9.4 µM (active).
For `Cc1ccc(-n2nnnc2Sc2ccc(S(=O)(=O)NCCN(C)C)cc2[N+](=O)[O-])cc1`, the AC50 [1] was 2.59 µM (active), the EC50 [2] was 2.26 µM (active) and the EC50 [3] was 2.05 µM (active).
In the case of `Cc1ccc(-c2[nH]c3ccccc3c2SCCNC(=O)c2ccc(S(=O)(=O)N3CCOCC3)cc2)cc1`, the EC50 [2] is reported as 112 µM (active) and the EC50 [3] is reported as 152 µM (active).
For `COc1ccccc1N1CCN(S(=O)(=O)c2ccccc2)CC1`, the AC50 [4] was 7.31 µM (active).
In the case of `O=C(/C=C/c1ccc([N+](=O)[O-])cc1)/C=C/c1ccco1`, the CC50 [5] is reported as 100 µM (active).
With `O=C(O)CCC(=O)Nc1ccc(O)c(C(=O)O)c1` the IC50 [6] was > 100 µM (not active).
For `O=C(CSc1nc2ccccc2s1)NO`, the IC50 [6] was > 100 µM (not active).
In the case of `COc1cccc(/C=C2/C(=O)NN(c3ccccc3)C2=O)c1`, the IC50 (Genome polyprotein) is reported as 45.8 µM (active).
In the case of `CN1C(=O)/C(=C2\SC(N)=NC2=O)c2ccccc21`, the EC50 [2] is reported as 33.2 µM (active) and the EC50 [3] is reported as 44.1 µM (active).
With `CN1CCCC(OC(=O)c2ccc3c(c2)OCCO3)C1` (stereo unspecified) the IC50 (Estrogen receptor beta) was > 50 µM (not active).
With `Nc1ccc(C(=O)Nc2cccc(N)c2)cc1` the AC50 [4] was 1.96 µM (active).
